From the NIST ThermoML archive (doi:10.1021/je400968v)

How the values were obtained:
[1] = mn = molality of the nth substance listed, in mol/kg; settings: 101 kPa, Liquid; for viscosity: Capillary tube (Ostwald / Ubbelohde) method; for mass density: Vibrating tube method
[2] = 101 kPa, Liquid; for viscosity: Capillary tube (Ostwald / Ubbelohde) method; for mass density: Vibrating tube method

Cc1c(N)cccc1N [2,6-diaminotoluene] + CCCCO
[1]
Settings	mass density, 293.15 K [kg/m3]	mass density, 303.15 K [kg/m3]	mass density, 313.15 K [kg/m3]	mass density, 323.15 K [kg/m3]	mass density, 333.15 K [kg/m3]	viscosity, 293.15 K [mPa·s]	viscosity, 303.15 K [mPa·s]	viscosity, 313.15 K [mPa·s]	viscosity, 323.15 K [mPa·s]	viscosity, 333.15 K [mPa·s]
m1 = 0.05	811.28	803.61	795.81	787.85	779.68	2.922	2.233	1.728	1.356	1.075
m1 = 0.0995	812.81	805.13	797.31	789.34	781.16	2.941	2.246	1.735	1.361	1.078
m1 = 0.1499	814.34	806.66	798.81	790.84	782.65	2.96	2.259	1.746	1.368	1.085
m1 = 0.1994	815.82	808.13	800.27	792.28	784.08	2.978	2.268	1.755	1.374	1.087
m1 = 0.2495	817.27	809.58	801.7	793.7	785.5	3.001	2.291	1.764	1.379	1.093

Cc1c(N)cccc1N [2,6-diaminotoluene] + O
[1]
Settings	mass density, 293.15 K [kg/m3]	mass density, 303.15 K [kg/m3]	mass density, 313.15 K [kg/m3]	mass density, 323.15 K [kg/m3]	mass density, 333.15 K [kg/m3]	viscosity, 293.15 K [mPa·s]	viscosity, 303.15 K [mPa·s]	viscosity, 313.15 K [mPa·s]	viscosity, 323.15 K [mPa·s]	viscosity, 333.15 K [mPa·s]
m1 = 0.0501	998.9	996.32	992.86	988.65	983.81	1.032	0.813	0.665	0.557	0.4741
m1 = 0.1002	999.59	996.97	993.49	989.24	984.38	1.053	0.832	0.677	0.563	0.479
m1 = 0.1502	1000.27	997.61	994.1	989.82	984.89	1.066	0.838	0.681	0.568	0.483
m1 = 0.2	1000.92	998.24	994.69	990.38	985.37	1.081	0.85	0.69	0.573	0.487
m1 = 0.2497	1001.57	998.86	995.27	990.93	985.79	1.09	0.854	0.694	0.575	0.488
m1 = 0.2993	1002.21	999.47	995.84	991.46	986.15	1.112	0.87	0.702	0.585	0.495

Cc1ccc(N)cc1N [4-methyl-1,3-benzendiamine] + CCCCO
[1]
Settings	mass density, 293.15 K [kg/m3]	mass density, 303.15 K [kg/m3]	mass density, 313.15 K [kg/m3]	mass density, 323.15 K [kg/m3]	mass density, 333.15 K [kg/m3]	viscosity, 293.15 K [mPa·s]	viscosity, 303.15 K [mPa·s]	viscosity, 313.15 K [mPa·s]	viscosity, 323.15 K [mPa·s]	viscosity, 333.15 K [mPa·s]
m1 = 0.0497	811.16	803.49	795.7	787.74	779.59	2.922	2.237	1.731	1.357	1.076
m1 = 0.0997	812.62	804.93	797.13	789.15	781	2.939	2.246	1.736	1.362	1.079
m1 = 0.1501	814.06	806.37	798.55	790.56	782.41	2.954	2.258	1.746	1.367	1.083
m1 = 0.1999	815.48	807.77	799.94	791.94	783.78	2.972	2.269	1.751	1.372	1.087
m1 = 0.2491	816.86	809.14	801.3	793.29	785.12	2.994	2.279	1.759	1.377	1.091

Cc1ccc(N)cc1N [4-methyl-1,3-benzendiamine] + O
[1]
Settings	mass density, 293.15 K [kg/m3]	mass density, 303.15 K [kg/m3]	mass density, 313.15 K [kg/m3]	mass density, 323.15 K [kg/m3]	mass density, 333.15 K [kg/m3]	viscosity, 293.15 K [mPa·s]	viscosity, 303.15 K [mPa·s]	viscosity, 313.15 K [mPa·s]	viscosity, 323.15 K [mPa·s]	viscosity, 333.15 K [mPa·s]
m1 = 0.0503	998.84	996.26	992.81	988.59	983.71	1.018	0.81	0.662	0.554	0.472
m1 = 0.0998	999.45	996.84	993.36	989.11	984.2	1.035	0.822	0.671	0.562	0.479
m1 = 0.1503	1000.06	997.41	993.9	989.62	984.68	1.051	0.831	0.679	0.571	0.484
m1 = 0.1999	1000.64	997.95	994.42	990.11	985.14	1.069	0.842	0.686	0.578	0.49

CCCCO [butan-1-ol]
[2]
Settings	mass density [kg/m3]	viscosity [mPa·s]
293.15 K	809.69	2.908
303.15 K	802.04	2.225
313.15 K	794.27	1.723
323.15 K	786.32	1.351
333.15 K	778.16	1.071

CCCCO [butan-1-ol] + Cc1c(N)cccc1N
[1], m2 = 0
Settings	mass density [kg/m3]	viscosity [mPa·s]
293.15 K	809.69	2.908
303.15 K	802.04	2.225
313.15 K	794.27	1.723
323.15 K	786.32	1.351
333.15 K	778.16	1.071

CCCCO [butan-1-ol] + Cc1ccc(N)cc1N
[1], m2 = 0
Settings	mass density [kg/m3]	viscosity [mPa·s]
293.15 K	809.69	2.908
303.15 K	802.04	2.225
313.15 K	794.27	1.723
323.15 K	786.32	1.351
333.15 K	778.16	1.071

CCO [ethanol]
[2]
Settings	mass density [kg/m3]	viscosity [mPa·s]
293.15 K	789.56	1.179
303.15 K	780.98	0.972
313.15 K	772.22	0.806
323.15 K	763.29	0.672
333.15 K	754.18	0.564

CCO [ethanol] + Cc1c(N)cccc1N
[1], m2 = 0
Settings	mass density [kg/m3]	viscosity [mPa·s]
293.15 K	789.56	1.179
303.15 K	780.98	0.972
313.15 K	772.22	0.806
323.15 K	763.29	0.672
333.15 K	754.18	0.564

CCO [ethanol] + Cc1ccc(N)cc1N
[1], m2 = 0
Settings	mass density [kg/m3]	viscosity [mPa·s]
293.15 K	789.56	1.179
303.15 K	780.98	0.972
313.15 K	772.22	0.806
323.15 K	763.29	0.672
333.15 K	754.18	0.564

CCCO [propan-1-ol]
[2]
Settings	mass density [kg/m3]	viscosity [mPa·s]
293.15 K	803.86	2.171
303.15 K	795.54	1.696
313.15 K	787.37	1.338
323.15 K	779.01	1.067
333.15 K	770.42	0.859

CCCO [propan-1-ol] + Cc1c(N)cccc1N
[1], m2 = 0
Settings	mass density [kg/m3]	viscosity [mPa·s]
293.15 K	803.86	2.171
303.15 K	795.54	1.696
313.15 K	787.37	1.338
323.15 K	779.01	1.067
333.15 K	770.42	0.859

CCCO [propan-1-ol] + Cc1ccc(N)cc1N
[1], m2 = 0
Settings	mass density [kg/m3]	viscosity [mPa·s]
293.15 K	803.86	2.171
303.15 K	795.54	1.696
313.15 K	787.37	1.338
323.15 K	779.01	1.067
333.15 K	770.42	0.859

O [water]
[2]
Settings	mass density [kg/m3]	viscosity [mPa·s]
293.15 K	–	1.002
303.15 K	–	0.798
313.15 K	–	0.653
323.15 K	988.04	0.547
333.15 K	983.2	0.467

O [water] + Cc1c(N)cccc1N
[1], m2 = 0
Settings	mass density [kg/m3]	viscosity [mPa·s]
293.15 K	–	1.002
303.15 K	–	0.798
313.15 K	–	0.653
323.15 K	988.04	0.547
333.15 K	983.2	0.467

O [water] + Cc1ccc(N)cc1N
[1], m2 = 0
Settings	mass density [kg/m3]
323.15 K	988.04
333.15 K	983.2
